Patent US20160100572A1, “Enhancement Of Insecticides Against Codling Moth (Lepidoptera: Tortricidae) With L-Aspartate” (priority 2014, published 2016)
Like-named read-outs stand apart in the source and are kept apart here.

Assays:
[1] = addition of 0.1% Coax; cited from earlier work
codling moth neonates [2] = test: Feeding stimulation by L-aspartate on treated apple leaf sections; assay type: in vivo, Cydia pomonella
Description: (§1) Codling moth adults (C. pomonella) were obtained from the U.S. Department of Agriculture Research Service (USDAD ARS) at Yakima, Wash. The moths were kept at 25° C., 70-80% relative humidity, and a photoperiod of 16:8 (L:D) h. Polyethylene foil was provided as an oviposition surface. […] In all experiments, 0.5-1 hour posthatch neonates were used.
Feeding Stimulation by L-Aspartate. The feeding behavior of test larvae was assessed on apple leaf sections treated with L-aspartate solutions, and by a quantitative analysis of the amounts of leaf tissue ingested. Briefly, L-aspartate was dissolved in 0.02% Triton X-100 in distilled water, and the following concentrations were used for treatment of experimental sections: 0.01, 0.1, and 1 mg/ml. Control leaves were treated with the 0.02% aqueous Triton X-100 only. Circular sections of uniform size (12 mm in diameter) were removed from Honeycrisp (U.S. Pat. No. 7,197) foliage, avoiding the leaf rib area. Test solutions (10 μl) were distributed over the upper surface of the excised sections that subsequently were allowed to air-dry. […] Treated sections were placed in bioassay stations and each section was infested with one neonate larva. The surface area of each leaf disc that was consumed was determined using a stereomicroscope equipped with an ocular square mesh reference scale (No. 12-561-RG2; Fisher, Pittsburgh, Pa.). Thirty-three fragments of leaves, chosen randomly from […] of the leaves, were also measured visually and then dried and weighed to establish a relationship between optical measurement and weight of foliage consumed. Based on this determination, consumed areas of the leaf were converted to an estimated dry weight of leaf tissue.
Thirty to forty neonate larvae were tested individually to each concentration of L-aspartate. The amount of leaf tissue consumed by neonates was estimated 3 and 24 hours after infestation of each bioassay station, and was expressed as average (mean±SEM) leaf consumption.

codling moth neonates [3] = assay type: in vivo; settings: addition of 1 mg/ml L-aspartate; LC50 alone divided by LC50 with L-aspartate
Description: as §1

codling moth neonates [4] = test: Foliage consumption on foliage treated with LC30 of insecticide alone or with L-aspartate; assay type: in vivo, Cydia pomonella; settings: LC30 of insecticide alone or with 1 mg/ml L-aspartate, 24 hours
codling moth larvae = test: Insecticide enhancement with L-aspartate: field trials, fruit damage; assay type: in vivo, Cydia pomonella; settings: for fruit damage reduced by: L-aspartate added to insecticides
Description: Field trials were performed in 2010, 2011, and 2012 in a research orchard at the Missouri State Fruit Experiment Station in Mountain Grove, Mo. […] A 1-hectare apple research block was set up for the research. […] To combat these pests and diseases, the block was treated with a standard program of fungicides and insecticides alone or with addition of L-aspartate. An untreated 0.5-hectare refuge for the lepidopteran pests consisting of apple trees that were not treated with fungicides or insecticides was set up on the periphery of the block to provide moderate pressure from the pests, including codling moth.
The same experimental routine was followed each year. Apple trees of Stark Gala variety on M7A rootstock were used in fully randomized design for eight replicates and three treatments (a given insecticide alone, L-aspartate in combination with a given insecticide, and untreated control). Codling moth populations in experimental plots were monitored using delta traps baited with 0.16% codlemone (8E,10E-dodecadien-1-ol). Whenever a weekly count of codling moth males in the traps reached or exceeded five males per trap, an insecticide was applied within the next 1-2 days.
For each replicate, one tree received a spray with an insecticide tank-mixed with L-aspartate. Concentration of L-aspartate was 211 g/100 liters, which corresponded to 395 g/ha. Next, one tree in each replicate was sprayed with the respective insecticide only. Surf-Ac 820 (2.1 kg/ha, 50 g/100 liters) was used as a surfactant in either spray with L-aspartate-insecticide combination or with the respective insecticide only. In addition, one tree in each replicate was left untreated.
Sprays (at delivery rate=4673 liters/ha) were performed using a custom-made motorized handgun sprayer with nine separate tanks (Friend Manufacturing Corporation, Gasport, N.Y.) capable of sending the spray precisely into canopy of height up to 4 meters. To minimize spray drift, a tarpaulin screen was used.
Each year, 200 apples were sampled from each experimental trees treated with insecticide-L-asparate combination, each control tree (treated with insecticides only), and from each untreated tree. One hundred apples per tree were collected 2 weeks after the first flight of codling moth (May 2010, early June in 2011, and May 2012). Remaining apples (100 per tree) were collected at harvest (August in 2010 and 2011 and July in 2012). […] Briefly, 33-34 apples were collected from each of three zones within the canopy (close to the trunk, from the middle of the distance in between the trunk and the tips of the branches, and from the outside portion of the canopy to within 10-15 cm inside). Each time a vertical area from the bottom to the top of the canopy was randomly sampled in a circuitous design around the tree. The apples were immediately weighed and inspected for damage in the laboratory. Once damage was found, the fruit was carefully fragmented with a paring knife, and internal fruit feeders (in some fruits larvae of oriental fruit moth were found) were collected and examined under a stereomicroscope. Codling moth larvae were discriminated from oriental fruit moth larvae by absence of anal comb (Il'ichev et al. 2006). […] Apple weight was expressed as average±SEM weight. Damage was expressed as average±SEM percentage of sampled fruit that was infected by codling moth larvae.

[5] = system: Drosophila N-methyl-D-aspartate (NMDA) receptors; settings: excitation of receptors; cited from earlier work
codling moth neonates [6] = settings: residues on artificial diet surface; cited from earlier work
codling moth neonates [7] = settings: cited from earlier work
[8] = system: fourth-instar larvae of Heliothis virescens; settings: fed artificial diet; cited from earlier work
[9] = system: fourth-instar larvae of Spodoptera littoralis; settings: fed artificial diet; cited from earlier work
codling moth neonates [10] = settings: earlier studies, cited from earlier work
[11] = system: neonates of Choristoneura rosaceana; settings: 24 hours, concentrations as low as 0.6 ppm (AI); cited from earlier work
Spodoptera frugiperda = settings: Nu-Lure, Coax or Konsume, concentrations as high as 10%; cited from earlier work

CC1(C)[C@H](C(=O)O[C@H](C#N)c2cccc(Oc3ccccc3)c2)[C@@H]1C=C(Br)Br [delthamethrin]
toxicity increased (times) [1]: 11.3 times

N[C@@H](CC(=O)O)C(=O)O [L-aspartate, L-Aspartic acid]
concentration at which food consumption increased (codling moth neonates [2]; 3-hour assays): 1 mg/mL
lowest effective concentration increasing food consumption (codling moth neonates [2]; 24-hour assays): 0.1 mg/mL
increased foliage consumption in comparison with control (codling moth neonates [2]; 3 hours, 1 mg/ml L-aspartate): approximately 60%
increased foliage consumption in comparison with control (codling moth neonates [2]; 24 hours, 0.1 mg/ml L-aspartate): approximately 30%
increased foliage consumption in comparison with control (codling moth neonates [2]; 24 hours, 1 mg/ml L-aspartate): approximately 40%
efficacy increased by a factor (enhancement ratio) (codling moth neonates [3]): approximately 10
foliage consumption (codling moth neonates [4]): maintained its feeding stimulatory properties even in the presence of each insecticide
fruit damage by first-generation neonates after addition of L-aspartate to insecticide sprays (codling moth larvae; 2010): < 1%
fruit damage by first-generation neonates after addition of L-aspartate to insecticide sprays (codling moth larvae; 2011): 1.2%
fruit damage by first-generation neonates after addition of L-aspartate to insecticide sprays (codling moth larvae; 2012): 1%
fruit damage reduced by (codling moth larvae; first generation): 5%
fruit damage reduced by (codling moth larvae; second generation): 15%
potency relative to glutamate [5]: about five times less potent than glutamate

C/C(=N\C#N)N(C)Cc1ccc(Cl)nc1 [acetamiprid]
LC50 with 95% confidence (codling moth neonates [6]): 1.35 to 2.06 mg (AI)/liter

spinosad
efficacy enhancement (codling moth neonates [7]; addition of trans-ACBD): enhanced almost two times

CC1(C)C(C=C(Cl)Cl)C1C(=O)OC(C#N)c1ccc(F)c(Oc2ccccc2)c1 (stereo not drawn) [β-cyfluthrin]
LC50 [8]: 3.1 μg/g of diet
LC50 [9]: 0.1 μg/g of diet

N[C@@H](CCC(=O)O)C(=O)[O-].[Na+] [monosodium glutamate]
concentration at which food consumption increased (codling moth neonates [10]; 3-hour assays): 0.03 mg/mL
effective concentration increasing food consumption (codling moth neonates [10]; 24-hour assays): 0.05 mg/mL

NC1(C(=O)O)CC(C(=O)O)C1 (stereo not drawn) [trans-ACBD]
reduction of insecticide active ingredient without sacrificing efficacy (codling moth neonates [7]; in vivo): > 50%

spinetoram
mortality [11]: 100%

O=C(NC(=O)c1c(F)cccc1F)Nc1ccc(Cl)cc1 [diβubenzuron]
mortality on adding phagostimulants (Spodoptera frugiperda): unable to significantly increase mortality

CCc1ccc(C(=O)NN(C(=O)c2cc(C)cc(C)c2)C(C)(C)C)cc1 [tebufenoside]
mortality on adding phagostimulants (Spodoptera frugiperda): unable to significantly increase mortality

CC1(C)C(C=C(Cl)Cl)C1C(=O)OC(C#N)c1cccc(Oc2ccccc2)c1 (stereo not shown) [cypermethrin]
toxicity increased (times) [1]: 2.4 times
